Results as given in patent US20250275968A1, “INHIBITORS OF TAU PROTEINS” (DEUTSCHES ZENTRUM FÜR NEURODEGENERATIVE ERKRANKUNGEN E.V., priority 2022, published 2025).
Structures can show the parent of a compound that is named as a salt.

What was measured:
[1] = system: HEK293T biosensor cells expressing the human tau repeat domain (RD) harboring the P301L/V337M mutation (TauRD^LM-GFP); assay: HEK biosensor cell tau seeding assay; type: cell-based; settings: for compound concentration up to which total amount of cells remained close to 100% (low toxicity): HEK biosensor cells, relative to vehicle (DMSO)
Description: Compound stock solutions were prepared as 10 mM compound in DMSO.
HEK293T biosensor cells expressing the human tau repeat domain (RD) harboring the P301L/V337M mutation and fused to a C-terminal GFP tag (named TauRD^LM-GFP) were engineered to probe Tau seeding in cellula (Reference: Liu, S., Hossinger, A., Heumüller, S E. et al. Highly efficient intercellular spreading of protein misfolding mediated by viral ligand-receptor interactions. Nat Commun 12, 5739 (2021). https://doi.org/10.1038/s41467-021-25855-2). HEK cells expressing the P301L human full-length Tau, C-terminally tagged with GFP were incubated with pre-sonicated hTau40^P301L fibrils to induce Tau aggregate formation. Cells were harvested and the resulting cell lysate was used to seed Tau aggregation in further experiments with HEK TauRD^LM-GFP cells.
In a typical seeded assay, HEK cells were incubated with cell lysate, compounds (0-40 μM) and lipofectamine for 22-48 hours. Negative control experiments in the absence of compounds (only with vehicle DMSO) and in the presence of cell lysate were performed in parallel.
Dose response curves were constructed by quantifying the number of cells with aggregates for each compound concentration. The curves were fitted with a sigmoid function using Graphpad PRISM version 8. The inhibitory concentration at 50% activity (IC50) was determined for each compound.

2N4R tau aggregates = biological target: T1, 2N4R tau aggregates (Homo sapiens, UniProt P10636); assay: Dissolution of preformed 2N4R tau fibrils (ThT fluorescence, TEM); type: biochemical; settings: compounds added to tau fibrils after about 40 h; tau monomer:Compound 1:3 and 1:10
T1 construct: Full-length 2N4R tau was incubated with Osimertinib mesylate
T1 sequence (P10636 1-441 isoform P10636-8): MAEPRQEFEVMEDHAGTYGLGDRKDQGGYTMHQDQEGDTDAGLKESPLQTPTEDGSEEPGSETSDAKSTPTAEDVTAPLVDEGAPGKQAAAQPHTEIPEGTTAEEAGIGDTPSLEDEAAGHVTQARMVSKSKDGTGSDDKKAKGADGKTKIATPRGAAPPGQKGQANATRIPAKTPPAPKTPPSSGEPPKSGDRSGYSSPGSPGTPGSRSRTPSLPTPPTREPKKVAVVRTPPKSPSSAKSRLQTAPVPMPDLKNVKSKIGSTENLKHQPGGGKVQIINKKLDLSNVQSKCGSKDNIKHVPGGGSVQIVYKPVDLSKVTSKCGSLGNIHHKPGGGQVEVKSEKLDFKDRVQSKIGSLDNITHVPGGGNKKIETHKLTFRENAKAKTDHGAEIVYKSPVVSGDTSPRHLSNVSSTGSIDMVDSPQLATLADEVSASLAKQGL
Description: (A) ThT fluorescence curves monitoring tau aggregation. tau fibrillization reached a saturation point within about 40 h, then compounds or buffer (Reference) were added to tau fibrils (tau monomer:Compound mole ratios 1:3 and 1:10). The experiment was performed in duplicate. […] Statistically significant differences were determined by one-way ANOVA with Dunnett's multiple comparison test. Significant differences corresponding to p≤0.0002(***) and p≤0.0001(****) are indicated. […] Scale bars are 500 nm. […] The dotted line corresponds to one standard deviation above the Reference value.
To prepare the Tau fibril seeds by de novo aggregation, 2N4R Tau at a monomer concentration of 25 μM was diluted in aggregation buffer. The working concentration of TCEP in the aggregation mixture was <25 μM after dilution of the stock. To this mixture, Thioflavin T (ThT) was added to a final concentration of 50 μM. A total volume of 100 μL of the Tau-ThT mixture was incubated in a well of a 96-well microplate (Greiner Bio-one), in the presence of two polytetrafluoroethylene beads. The microplate was subjected to a program implemented in a Tecan Spark plate reader that involved incubating at 37° C., with intervals of double orbital shaking and ThT fluorescence emission measurement. The excitation wavelength for ThT was set as 430 nm and the emission wavelength was 485 nm. Details of this plate reader program were published previously (Reference: Chakraborty, P. et al. Co-factor-free aggregation of tau into seeding-competent RNA-sequestering amyloid fibrils. Nat. Commun. 12, 4231 (2021)). […] The fibril-containing mixture collected from the microplate served as a seeding mixture for the subsequent aggregation assays.
Fibril samples were negative stained using glow discharged 400 mesh carbon-coated copper grids. After staining using a 1% uranyl acetate solution, images were acquired on a Talos L120C transmission electron microscope (Thermo Fisher, Eindhoven, The Netherlands).

tau(244-372, 13818 Da) = biological target: T2, tau(244-372, 13818 Da) (Homo sapiens, UniProt P10636); assay: ESI-MS covalent modification of tau; type: binding
T2 construct: comprising residues 244-372 of 2N4R Tau
T2 sequence (P10636 561-689): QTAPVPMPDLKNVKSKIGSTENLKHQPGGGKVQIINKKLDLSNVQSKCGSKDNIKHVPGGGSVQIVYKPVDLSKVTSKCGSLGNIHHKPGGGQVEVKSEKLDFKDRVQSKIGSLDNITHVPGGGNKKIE
Description: This analysis was performed using the 4R Tau construct (K18 construct, 13818 Da) comprising residues 244-372 of 2N4R Tau. Compounds (330 μM) were incubated with 4R Tau (65 μM) for 16 h at 37° C. in 10 mM ammonium bicarbonate at pH 7.0. The compound/4R Tau mixtures were injected into an LC system (ACQUITY) coupled to a single quadrupole mass detection system (SQ Detector 2, Waters) with diode-array detectors (DAD). The DAD spectrum covers wavelengths of 210-400 nm. Components of the compound-4R Tau mixture were separated using a BioResolve RP mAb column (Waters) with a gradient of 5-95% buffer B (buffer A is 0.1% TFA in water and buffer B is 0.1% TFA in acetonitrile). Covalent modification of 4R Tau corresponded to mass additions of 500 Da (Osimertinib) and 486 Da (AZ7550 or AZ5104).

[2] = system: tau-induced degeneration of Drosophila eyes (GMR-Gal4/WT tau); assay: Drosophila neurodegeneration model (eye degeneration); type: in vivo
Description: Stock solutions of individual compounds were prepared by dissolving 10 mg of the compound in 100 μl of 100% DMSO. Osimertinib, Osimertinib mesylate and AZ7550 mesylate were orally fed to the flies by mixing them with food. The final concentration of each compound, which was used for treating the Drosophila, was derived on the basis of recommended concentrations for human use (reference concentration) based on body weight.
We have used three concentrations for each compound. One was equal to the reference concentration, and two were higher than the reference concentration. Final concentrations of different compounds mixed with fly food are: Osimertinib mesylate, […]; Osimertinib, […]; AZ 7550 mesylate, 10 µM and 20 µM. After hatching, first instar larvae were transferred onto the food containing one of the compounds. Food mixed with drug at required concentration was replaced with fresh food every 48 h.
Light microscopy was performed after mounting the fly heads on the glass slide using a double-sided adhesive tape. Full-eye images were captured with the help of an Infinity Analyze camera attached to an Olympus SZX7 microscope with a halogen light source. Total eye surface area and degenerated eye surface area were marked and calculated with Infinity Analyze software (Lumenera corporation). Percentage of degenerated area was calculated and plotted using GraphPad Prism 8.
After the eclosion, treated and control flies (2-3 days old) were fixed in 1% formaldehyde for two hours, followed by serial dehydration steps of 12 hrs each in 25%, 50%, 75% and 100% ethanol were carried out. Flies were stored in 100% ethanol and dried with CPD before mounting on the stab for imaging. Eye Images were captured at 150× and analyzed using Infinity Analyze software.

SMILES	compound concentration up to which total amount of cells remained close to 100% (low toxicity) [1]	dissolution of 2N4R tau aggregates (reduction of ThT fluorescence intensity) (2N4R tau aggregates)	covalent modification of cysteines in tau (ESI-MS) (tau(244-372, 13818 Da))	tau-induced degeneration of Drosophila eyes (percent degeneration, light microscopy) ([2]; GMR-Gal4/WT tau flies treated in food from larvae stage to adult stage)	inhibition of seeded aggregation of tau in HEK biosensor cells ([1]; 0.25 μM or 7.5 μM, 22 hours, lipofectamine)	aggregate formation in cells ([1]; higher concentration (7.5 μM), 22 hours)	signs of eye degeneration in SEM micrographs ([2]; compared to control with GMR-Gal4/WT tau)
C=CC(=O)Nc1cc(Nc2nccc(-c3c[nH]c4ccccc34)n2)c(OC)cc1N(C)CCN(C)C [Compound 3, N-[2-[[2-(dimethylamino)ethyl]methylamino]-5-[[4-(1H-indol-3-yl)-2-pyrimidinyl]amino]-4-methoxyphenyl]-2-Propenamide]	about 5.0 μM	partially dissolve	confirms covalent modification of cysteines	–	–	–	–
C=CC(=O)Nc1cc(Nc2nccc(-c3cn(C)c4ccccc34)n2)c(OC)cc1N(C)CCN(C)C [Osimertinib mesylate, N-[2-(2-Dimethylaminoethylmethylamino)-4-methoxy-5-[[4-(1-methylindol-3-yl)pyrimidin-2-yl]amino]phenyl]prop-2-enamide Mesylate Salt]	–	–	–	rescue tau-induced degeneration of Drosophila eyes	–	–	–
C=CC(=O)Nc1cc(Nc2nccc(-c3cn(C)c4ccccc34)n2)c(OC)cc1N(C)CCN(C)C [Osimertinib, N-[2-(2-Dimethylaminoethylmethylamino)-4-methoxy-5-[[4-(1-methylindol-3-yl)pyrimidin-2-yl]amino]phenyl]prop-2-enamide]	about 5.0 μM	partially dissolve	confirms covalent modification of cysteines	–	inhibits the seeded aggregation of tau	decreased aggregate formation	visibly reduced signs of degeneration
